Experiments:
[1] = target: hGYS1 enzyme (recombinant hGYS1/GN1 protein) (Homo sapiens (Human), UniProt P13807); assay: GYS1 coupled enzyme assay (PK/LDH); type: biochemical; details: hGYS1/GN1 50 nM, UDP-Glucose 0.8 mM, G6P 1 mM; geometric mean of at least 2 runs
[2] = target: hGYS2 enzyme (recombinant hGYS2/GN1 protein) (Homo sapiens (Human), UniProt P54840); assay: GYS2 coupled enzyme assay (PK/LDH); type: biochemical; details: geometric mean of at least 2 assay runs on separate days, read-out: Avg_IC50
Summary of the method: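 Recombinant hGYS2/GN1 (200 nM) with 2 mM UDP-glucose, 0.2% rabbit liver glycogen, 2 mM glucose-6-phosphate; UDP coupled via PK/LDH (2 mM PEP, 0.6 mM NADH). Buffer 50 mM Tris pH 7.5, 2 mM MgCl2, 100 mM KCl, 2.5% DMSO. A340 slope over 10 min; IC50 from Hill fit of duplicates.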

hGYS1 enzyme (recombinant hGYS1/GN1 protein), sequence (P13807 whole entry): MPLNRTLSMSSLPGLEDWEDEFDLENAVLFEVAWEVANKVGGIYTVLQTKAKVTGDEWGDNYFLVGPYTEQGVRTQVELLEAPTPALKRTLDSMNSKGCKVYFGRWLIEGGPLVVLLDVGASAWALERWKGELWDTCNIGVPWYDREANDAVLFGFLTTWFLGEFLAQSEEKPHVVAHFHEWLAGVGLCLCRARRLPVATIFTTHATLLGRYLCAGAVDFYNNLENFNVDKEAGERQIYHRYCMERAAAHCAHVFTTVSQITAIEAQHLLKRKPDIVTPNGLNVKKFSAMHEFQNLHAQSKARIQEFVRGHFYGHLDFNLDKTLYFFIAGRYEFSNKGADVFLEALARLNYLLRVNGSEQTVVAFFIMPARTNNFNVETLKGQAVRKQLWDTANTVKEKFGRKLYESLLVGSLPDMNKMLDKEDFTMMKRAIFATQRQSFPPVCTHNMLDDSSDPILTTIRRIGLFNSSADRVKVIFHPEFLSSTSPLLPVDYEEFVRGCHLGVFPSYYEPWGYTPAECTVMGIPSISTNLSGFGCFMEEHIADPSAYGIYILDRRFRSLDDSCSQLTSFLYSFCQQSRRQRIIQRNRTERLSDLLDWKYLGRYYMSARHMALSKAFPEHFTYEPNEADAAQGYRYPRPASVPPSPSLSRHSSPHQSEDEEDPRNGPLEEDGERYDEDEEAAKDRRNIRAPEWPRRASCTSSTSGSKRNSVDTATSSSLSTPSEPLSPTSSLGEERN
hGYS1 enzyme (recombinant hGYS1/GN1 protein), sequence (P46976 whole entry partner): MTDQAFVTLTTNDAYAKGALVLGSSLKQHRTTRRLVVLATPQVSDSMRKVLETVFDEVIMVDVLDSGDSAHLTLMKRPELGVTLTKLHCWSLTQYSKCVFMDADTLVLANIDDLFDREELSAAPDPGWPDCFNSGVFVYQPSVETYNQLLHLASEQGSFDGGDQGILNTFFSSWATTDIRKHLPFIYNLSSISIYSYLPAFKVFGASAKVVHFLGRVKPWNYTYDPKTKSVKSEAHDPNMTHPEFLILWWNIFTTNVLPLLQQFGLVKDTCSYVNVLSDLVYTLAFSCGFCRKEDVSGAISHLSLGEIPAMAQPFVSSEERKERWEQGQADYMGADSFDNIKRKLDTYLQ
hGYS2 enzyme (recombinant hGYS2/GN1 protein), sequence (P54840 whole entry): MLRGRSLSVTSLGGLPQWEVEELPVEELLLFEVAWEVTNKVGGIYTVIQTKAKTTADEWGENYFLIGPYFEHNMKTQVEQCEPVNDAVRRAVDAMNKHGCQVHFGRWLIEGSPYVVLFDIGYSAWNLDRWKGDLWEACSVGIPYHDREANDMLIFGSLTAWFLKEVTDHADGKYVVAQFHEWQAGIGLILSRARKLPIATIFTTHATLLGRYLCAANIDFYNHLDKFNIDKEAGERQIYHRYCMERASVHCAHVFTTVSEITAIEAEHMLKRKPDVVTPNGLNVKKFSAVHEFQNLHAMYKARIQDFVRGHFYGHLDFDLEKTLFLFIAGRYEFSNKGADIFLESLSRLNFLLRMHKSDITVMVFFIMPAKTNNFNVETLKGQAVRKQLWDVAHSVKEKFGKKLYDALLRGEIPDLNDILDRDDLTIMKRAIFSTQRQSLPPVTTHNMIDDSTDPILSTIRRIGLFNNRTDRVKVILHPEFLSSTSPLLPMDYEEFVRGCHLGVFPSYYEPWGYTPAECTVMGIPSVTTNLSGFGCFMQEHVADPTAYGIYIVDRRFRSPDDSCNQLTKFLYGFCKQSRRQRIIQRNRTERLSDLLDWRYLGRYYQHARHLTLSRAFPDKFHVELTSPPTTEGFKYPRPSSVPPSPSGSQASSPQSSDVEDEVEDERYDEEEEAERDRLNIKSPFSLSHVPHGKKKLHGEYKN
hGYS2 enzyme (recombinant hGYS2/GN1 protein), sequence (P46976 whole entry partner): as the sequence (P46976 whole entry partner) above

SMILES: CC(C)c1ccc([C@@H](NC(=O)[C@@H]2C[C@@H](F)CN2C(=O)CCc2c[nH]c3ccccc23)c2ccccc2)cc1 [Compound 109, (2S,4R)-4-fluoro-1-[3-(1H-indol-3-yl)propanoyl]-N-[(S)-phenyl[4-(propan-2-yl)phenyl]methyl]pyrrolidine-2-carboxamide]
- IC50 [1]: 41 nM
- IC50 [2]: > 100000 nM

SMILES: CC(C)c1ccc([C@@H](NC(=O)[C@@H]2C[C@@H](F)CN2C(=O)Cn2ccc3c(F)cccc32)c2ccccc2)cc1 [Compound 128, (2S,4R)-4-fluoro-1-[2-(4-fluoro-1H-indol-1-yl)acetyl]-N-[(S)-phenyl[4-(propan-2-yl)phenyl]methyl]pyrrolidine-2-carboxamide]
- IC50 [1]: 56 nM
- IC50 [2]: > 100000 nM

SMILES: O=C(N[C@@H](c1ccccc1)c1ccc(C2CC2)c(F)c1)[C@@H]1C[C@@H](F)CN1C(=O)Cc1ccn[nH]1 [Compound 436, (2S,4R)-N-[(S)-(4-cyclopropyl-3-fluorophenyl)(phenyl)methyl]-4-fluoro-1-[2-(1H-pyrazol-5-yl)acetyl]pyrrolidine-2-carboxamide]
- IC50 [1]: 173 nM
- IC50 [2]: > 100000 nM

SMILES: CC(C)c1ccc([C@@H](NC(=O)[C@@H]2C[C@@H](F)CN2C(=O)CCc2ccc(=O)[nH]n2)c2ccccc2)cc1 [Compound 114, (2S,4R)-4-fluoro-1-[3-(6-oxo-1,6-dihydropyridazin-3-yl)propanoyl]-N-[(S)-phenyl[4-(propan-2-yl)phenyl]methyl]pyrrolidine-2-carboxamide]
- IC50 [1]: 208 nM
- IC50 [2]: > 100000 nM

SMILES: CC(C)c1ccc([C@@H](NC(=O)[C@@H]2C[C@@H](F)CN2C(=O)Cc2cc3ccccc3n2C)c2ccccc2)cc1 [Compound 137, (2S,4R)-4-fluoro-1-[2-(1-methyl-1H-indol-2-yl)acetyl]-N-[(S)-phenyl[4-(propan-2-yl)phenyl]methyl]pyrrolidine-2-carboxamide]
- IC50 [1]: 17 nM
- IC50 [2]: > 100000 nM

SMILES: CC(C)c1ccc([C@@H](NC(=O)[C@@H]2CCCN2C(=O)Cc2cnn[nH]2)c2cccc3[nH]c(=O)[nH]c23)cc1 [Compound 644, (2S)-N-[(R)-(2-oxo-2,3-dihydro-1H-1,3-benzodiazol-4-yl)[4-(propan-2-yl)phenyl]methyl]-1-[2-(1H-1,2,3-triazol-5-yl)acetyl]pyrrolidine-2-carboxamide]
- IC50 [1]: 273 nM
- IC50 [2]: > 100000 nM

SMILES: CC(C)c1ccc([C@@H](NC(=O)[C@@H]2C[C@@H](F)CN2C(=O)CCCn2ccnc2)c2ccccc2)cc1 [Compound 75, (2S,4R)-4-fluoro-1-[4-(1H-imidazol-1-yl)butanoyl]-N-[(S)-phenyl[4-(propan-2-yl)phenyl]methyl]pyrrolidine-2-carboxamide]
- IC50 [1]: 224 nM
- IC50 [2]: > 100000 nM

SMILES: CC(C)c1ccc([C@@H](NC(=O)[C@@H]2C[C@@H](F)CN2C(=O)Cc2ccccn2)c2ccccc2)cc1 [Compound 37, (2S,4R)-4-fluoro-N-[(S)-phenyl[4-(propan-2-yl)phenyl]methyl]-1-[2-(pyridin-2-yl)acetyl]pyrrolidine-2-carboxamide]
- IC50 [1]: 45 nM
- IC50 [2]: > 100000 nM

SMILES: CC(=O)N1C[C@H]2COC[C@@]2(C(=O)N2C[C@H](F)C[C@H]2C(=O)N[C@@H](c2ccccc2)c2ccc(C(C)C)cc2)C1 [Compound 3, (2S,4R)-1-[(3aS,6aS)-5-acetyl-hexahydro-1H-furo[3,4-c]pyrrole-3a-carbonyl]-4-fluoro-N-[(S)-phenyl[4-(propan-2-yl)phenyl]methyl]pyrrolidine-2-carboxamide]
- IC50 [1]: 168 nM
- IC50 [2]: > 100000 nM

SMILES: CC(=O)N1CC[C@@H](C(=O)N2C[C@H](F)C[C@H]2C(=O)N[C@@H](c2ccccc2)c2ccc(C(C)C)cc2)[C@@H]1c1cccnc1 [Compound 140, (2S,4R)-1-[(2R,3R)-1-acetyl-2-(pyridin-3-yl)pyrrolidine-3-carbonyl]-4-fluoro-N-[(S)-phenyl[4-(propan-2-yl)phenyl]methyl]pyrrolidine-2-carboxamide]
- IC50 [1]: 67 nM
- IC50 [2]: > 100000 nM

SMILES: O=C(N[C@@H](c1ccccc1)c1ccc(C2CC2)c(F)c1)[C@@H]1C[C@@H](F)CN1C(=O)CCc1ncco1 [Compound 422, (2S,4R)-N-[(S)-(4-cyclopropyl-3-fluorophenyl)(phenyl)methyl]-4-fluoro-1-[3-(1,3-oxazol-2-yl)propanoyl]pyrrolidine-2-carboxamide]
- IC50 [1]: 166 nM
- IC50 [2]: > 100000 nM

SMILES: CC(=O)N1CCCO[C@@H](C(=O)N2C[C@H](F)C[C@H]2C(=O)N[C@@H](c2ccccc2)c2ccc(C(C)C)cc2)C1 [Compound 158, (2S,4R)-1-[(2R)-4-acetyl-1,4-oxazepane-2-carbonyl]-4-fluoro-N-[(S)-phenyl[4-(propan-2-yl)phenyl]methyl]pyrrolidine-2-carboxamide]
- IC50 [1]: 70 nM
- IC50 [2]: > 100000 nM

SMILES: CC(C)c1ccc([C@@H](NC(=O)[C@@H]2C[C@@H](F)CN2C(=O)CNC(=O)N2CC(C(F)(F)F)C2)c2ccccc2)nc1 [Compound 291, (2S,4R)-4-fluoro-N-[(S)-phenyl[5-(propan-2-yl)pyridin-2-yl]methyl]-1-(2-{[3-(trifluoromethyl)azetidin-1-carbonyl]amino}acetyl) pyrrolidine-2-carboxamide]
- IC50 [1]: 53 nM
- IC50 [2]: > 100000 nM

SMILES: CC(=O)N[C@@H](CCC(=O)O)C(=O)N1C[C@H](F)C[C@H]1C(=O)N[C@@H](c1ccccc1)c1ccc(C(C)C)cc1 [Compound 196, (4S)-4-acetamido-5-[(2S,4R)-4-fluoro-2-{[(S)-phenyl[4-(propan-2-yl)phenyl]methyl]carbamoyl}pyrrolidin-1-yl]-5-oxopentanoic acid]
- IC50 [1]: 143 nM
- IC50 [2]: > 100000 nM

SMILES: CC(=O)N1CC(C)(C(=O)N2C[C@H](F)C[C@H]2C(=O)N[C@@H](c2ccccc2)c2ccc(C(C)C)cc2)C1 [Compound 146, (2S,4R)-1-(1-acetyl-3-methylazetidine-3-carbonyl)-4-fluoro-N-[(S)-phenyl[4-(propan-2-yl)phenyl]methyl]pyrrolidine-2-carboxamide]
- IC50 [1]: 206 nM
- IC50 [2]: > 100000 nM

SMILES: CC(C)c1ccc([C@@H](NC(=O)[C@@H]2C[C@@H](F)CN2C(=O)Cc2ccncn2)c2ccccc2)cc1F [Compound 346, (2S,4R)-4-fluoro-N-[(S)-[3-fluoro-4-(propan-2-yl)phenyl](phenyl)methyl]-1-[2-(pyrimidin-4-yl)acetyl]pyrrolidine-2-carboxamide]
- IC50 [1]: 24 nM
- IC50 [2]: > 100000 nM

SMILES: CC(C)c1ccc([C@@H](NC(=O)[C@@H]2C[C@@H](F)CN2C(=O)CC#N)c2ccccc2)cc1 [Compound 188, (2S,4R)-1-(2-cyanoacetyl)-4-fluoro-N-[(S)-phenyl[4-(propan-2-yl)phenyl]methyl]pyrrolidine-2-carboxamide]
- IC50 [1]: 237 nM
- IC50 [2]: > 100000 nM

SMILES: CC(C)c1ccc([C@@H](NC(=O)[C@@H]2C[C@@H](F)CN2C(=O)Cc2cnn[nH]2)c2cccc(F)c2)cc1F [Compound 645, (2S,4R)-4-fluoro-N-[(S)-[3-fluoro-4-(propan-2-yl)phenyl](3-fluoropheny)methyl]-1-[2-(1H-1,2,3-triazol-5-yl)acetyl]pyrrolidine-2-carboxamide]
- IC50 [1]: 100 nM
- IC50 [2]: > 100000 nM

SMILES: CC(C)c1ccc([C@@H](NC(=O)[C@@H]2[C@H]3C[C@H]3CN2C(=O)Cc2cnn[nH]2)c2ccccc2)cc1F [Compound 325, (1S,2S,5R)-N-[(S)-[3-fluoro-4-(propan-2-yl)phenyl](phenyl)methyl]-3-[2-(1H-1,2,3-triazol-5-yl)acetyl]-3-azabicyclo[3.1.0]hexane-2-carboxamide]
- IC50 [1]: 75 nM
- IC50 [2]: > 100000 nM

SMILES: O=C(N[C@@H](c1ccccc1)c1ccc(C2CC2)c(F)c1)[C@@H]1C[C@@H](F)CN1C(=O)Cc1nnco1 [Compound 426, (2S,4R)-N-[(S)-(4-cyclopropyl-3-fluorophenyl)(phenyl)methyl]-4-fluoro-1-[2-(1,3,4-oxadiazol-2-yl)acetyl]pyrrolidine-2-carboxamide]
- IC50 [1]: 363 nM
- IC50 [2]: > 100000 nM

SMILES: CC(=O)N1CC2(CCCC2CC(=O)N2C[C@H](F)C[C@H]2C(=O)N[C@@H](c2ccccc2)c2ccc(C(C)C)cc2)C1 (stereo partly drawn) [Compound 7, (2S,4R)-1-(2-{2-acetyl-2-azaspiro[3.4]octan-5-yl}acetyl)-4-fluoro-N-[(S)-phenyl[4-(propan-2-yl)phenyl]methyl]pyrrolidine-2-carboxamide]
- IC50 [1]: 113 nM
- IC50 [2]: > 100000 nM

SMILES: O=C(NC(c1ccccc1)c1cc(F)c(C2CC2)c(F)c1)[C@@H]1C[C@@H](F)CN1C(=O)Cc1ncco1 (single isomer, unassigned) [Compound 662]
- IC50 [1]: 227 nM
- IC50 [2]: > 100000 nM

SMILES: CC(C)c1ccc([C@@H](NC(=O)[C@@H]2C[C@@H](F)CN2C(=O)Cn2cnnn2)c2ccccc2)cc1 [Compound 9, (2S,4R)-4-fluoro-N-[(S)-phenyl[4-(propan-2-yl)phenyl]methyl]-1-[2-(1H-1,2,3-tetrazol-1-yl)acetyl]pyrrolidine-2-carboxamide]
- IC50 [1]: 59 nM
- IC50 [2]: > 100000 nM

SMILES: CC(C)c1ccc([C@@H](NC(=O)[C@@H]2C[C@@H](F)CN2C(=O)Cc2nnn[nH]2)c2ccccc2)cc1F [Compound 328, (2S,4R)-4-fluoro-N-[(S)-[3-fluoro-4-(propan-2-yl)phenyl](phenyl)methyl]-1-[2-(1H-1,2,3,4-tetrazol-5-yl)acetyl]pyrrolidine-2-carboxamide]
- IC50 [1]: 16 nM
- IC50 [2]: > 100000 nM

SMILES: CC(C)c1ccc([C@@H](NC(=O)[C@@H]2C[C@@H](F)CN2C(=O)CS(=O)(=O)N2CCCC2)c2ccccc2)cc1 [Compound 129, (2S,4R)-4-fluoro-N-[(S)-phenyl[4-(propan-2-yl)phenyl]methyl]-1-[2-(pyrrolidine-1-sulfonyl)acety]pyrrolidine-2-carboxamide]
- IC50 [1]: 217 nM
- IC50 [2]: > 100000 nM

SMILES: CC(C)c1ccc([C@@H](NC(=O)[C@@H]2C[C@@H](F)CN2C(=O)CN2CCOC2=O)c2ccccc2)cc1 [Compound 217]
- IC50 [1]: 96 nM
- IC50 [2]: > 100000 nM

— US11814367B2, “Inhibitors of glycogen synthase 1 (GYS1) and methods of use thereof” (Maze Therapeutics, Inc., priority 2021, dated 2023)
